Assays:
[1] = biological target: Ba/F3 EGFR-D770-N771ins_SVD (Homo sapiens, UniProt P00533, DUP768-770, cells depend on it); test: Proliferation of Ba/F3 EGFR mutant cell line (CellTiter-Glo); format: cell-based, mouse; settings: 72 h to 144 h, read-out: Ba/F3 EGFR-D770-N771ins_SVD IC50
Protocol: Determination of the Inhibitory Effect of the Compound of the Present Invention on the Proliferation of Ba/F3 EGFR Mutant Cell Line and A431 Cell Line
(§1) Experimental objective: The objective of this test example is to determine the inhibitory effect of the compound on the proliferation of Ba/F3 EGFR mutant cell line and A431 cell line
(§2) Experimental instruments: Microplate reader (BioTek Synergy H1), pipette (Eppendorf & Rainin).
Ba/F3 EGFR mutant cells were cultured, and harvested after reaching a suitable density. The cells were adjusted to an appropriate cell concentration with the complete medium. The cell suspension were spread on a 96-well plate (90 μL per well), and the plate was placed in a 37° C., 5% CO2 incubator overnight to let the cells adhere to the wall. Solutions of the compound at different concentrations were formulated with DMSO and culture medium. Solvent control was set. […] CellTiter-Glo solution was added and mixed well by shaking, and the plate was incubated in the dark for 10 minutes. The values were measured by BioTek Synergy H1 microplate reader.
(§3) Experimental Data Processing Method:
(§4) The inhibition rate was calculated using the […] signal value. The concentration and inhibition rate were fitted to a nonlinear regression curve by Graphpad Prism software to obtain the IC50 value.

[2] = test system: A431 cell line; test: Proliferation of A431 cell line (CellTiter-Glo); format: cell-based; settings: Homo sapiens, A-431, 72 h
Protocol: Test Example 3. Determination of the Inhibitory Effect of the Compound of the Present Invention on the Proliferation of Ba/F3 EGFR Mutant Cell Line and A431 Cell Line
as §1, §2
A431 cells were cultured, and harvested after reaching a suitable density. The cells were adjusted to an appropriate cell concentration with the complete medium. The cell suspension were spread on a 96-well plate (90 μL per well), and the plate was placed in a 37° C., 5% CO2 incubator overnight to let the cells adhere to the wall. Solutions of the compound at different concentrations were formulated with DMSO and culture medium. Solvent control was set. The solution of the compound was added to the 96-well plate ([…]), and the plate was incubated in the 37° C., 5% CO2 incubator for 72 h. CellTiter-Glo solution was added and mixed well by shaking, and the plate was incubated in the dark for 10 minutes. The values were measured by BioTek Synergy H1 microplate reader.
as §3, §4

[3] = biological target: EGFR D770_N771insNPG (Homo sapiens, UniProt P00533, INS770NPG); test: TR-FRET inhibition of kinase activity of EGFR exon 20 insertion mutation; format: biochemical
Chain of EGFR D770_N771insNPG (P00533 with tags, fused parts or gaps INS770NPG limits assumed): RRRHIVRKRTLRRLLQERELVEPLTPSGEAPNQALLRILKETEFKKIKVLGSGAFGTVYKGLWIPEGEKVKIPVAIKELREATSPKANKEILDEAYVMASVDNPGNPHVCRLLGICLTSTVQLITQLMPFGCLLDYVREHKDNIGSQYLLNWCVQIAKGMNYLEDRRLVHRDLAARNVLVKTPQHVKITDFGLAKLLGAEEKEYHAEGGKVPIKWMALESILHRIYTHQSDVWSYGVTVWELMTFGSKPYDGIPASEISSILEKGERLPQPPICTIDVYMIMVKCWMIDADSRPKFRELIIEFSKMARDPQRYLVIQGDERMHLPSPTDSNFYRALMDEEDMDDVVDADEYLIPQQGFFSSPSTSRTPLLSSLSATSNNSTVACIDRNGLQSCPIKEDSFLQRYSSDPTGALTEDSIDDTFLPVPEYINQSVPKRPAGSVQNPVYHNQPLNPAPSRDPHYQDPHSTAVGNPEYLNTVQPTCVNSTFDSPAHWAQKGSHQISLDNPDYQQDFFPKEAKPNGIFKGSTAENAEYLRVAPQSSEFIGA
Source text: Determination of the Inhibitory Effect of the Compound of the Present Invention on the Kinase Activity of EGFR Exon 20 Insertion Mutation
Experimental objective: The objective of this test example is to determine the inhibitory effect of the compound on the kinase activity of EGFR exon 20 insertion mutation.
Experimental process: The experiment applied the TR-FRET (time-resolved fluorescence resonance energy transfer) method to study the inhibitory effect of the compound on the kinase activity of EGFR exon 20 insertion mutation. The experiment was carried out in a 384-well plate. Experimental buffer (50 mM HEPES, 1 mM EGTA, 10 mM MgCl2, 2 mM DTT, 0.01% Tween-20) was formulated. The compound was diluted in gradient to different concentrations with the experimental buffer. 2.5 μL of the solution was added to each well of the 384-well plate. 2.5 μL of diluted EGFR kinase solution (0.001-0.5 nM) was added, and the plate was incubated at room temperature for 10 minutes. 5 μL of ULight-poly GT/ATP mixed solution was added, and the plate was incubated at room temperature for 30 to 60 minutes. 5 μL of EDTA stop solution and 5 μL of Eu-labeled antibody detection solution were added, and the plate was incubated at room temperature for 1 hour.
as §3
The concentration and inhibition rate were fitted to a nonlinear regression curve by Graphpad Prism software to obtain the IC50 value.

Chain of Ba/F3 EGFR-D770-N771ins_SVD (P00533 with tags, fused parts or gaps DUP768-770): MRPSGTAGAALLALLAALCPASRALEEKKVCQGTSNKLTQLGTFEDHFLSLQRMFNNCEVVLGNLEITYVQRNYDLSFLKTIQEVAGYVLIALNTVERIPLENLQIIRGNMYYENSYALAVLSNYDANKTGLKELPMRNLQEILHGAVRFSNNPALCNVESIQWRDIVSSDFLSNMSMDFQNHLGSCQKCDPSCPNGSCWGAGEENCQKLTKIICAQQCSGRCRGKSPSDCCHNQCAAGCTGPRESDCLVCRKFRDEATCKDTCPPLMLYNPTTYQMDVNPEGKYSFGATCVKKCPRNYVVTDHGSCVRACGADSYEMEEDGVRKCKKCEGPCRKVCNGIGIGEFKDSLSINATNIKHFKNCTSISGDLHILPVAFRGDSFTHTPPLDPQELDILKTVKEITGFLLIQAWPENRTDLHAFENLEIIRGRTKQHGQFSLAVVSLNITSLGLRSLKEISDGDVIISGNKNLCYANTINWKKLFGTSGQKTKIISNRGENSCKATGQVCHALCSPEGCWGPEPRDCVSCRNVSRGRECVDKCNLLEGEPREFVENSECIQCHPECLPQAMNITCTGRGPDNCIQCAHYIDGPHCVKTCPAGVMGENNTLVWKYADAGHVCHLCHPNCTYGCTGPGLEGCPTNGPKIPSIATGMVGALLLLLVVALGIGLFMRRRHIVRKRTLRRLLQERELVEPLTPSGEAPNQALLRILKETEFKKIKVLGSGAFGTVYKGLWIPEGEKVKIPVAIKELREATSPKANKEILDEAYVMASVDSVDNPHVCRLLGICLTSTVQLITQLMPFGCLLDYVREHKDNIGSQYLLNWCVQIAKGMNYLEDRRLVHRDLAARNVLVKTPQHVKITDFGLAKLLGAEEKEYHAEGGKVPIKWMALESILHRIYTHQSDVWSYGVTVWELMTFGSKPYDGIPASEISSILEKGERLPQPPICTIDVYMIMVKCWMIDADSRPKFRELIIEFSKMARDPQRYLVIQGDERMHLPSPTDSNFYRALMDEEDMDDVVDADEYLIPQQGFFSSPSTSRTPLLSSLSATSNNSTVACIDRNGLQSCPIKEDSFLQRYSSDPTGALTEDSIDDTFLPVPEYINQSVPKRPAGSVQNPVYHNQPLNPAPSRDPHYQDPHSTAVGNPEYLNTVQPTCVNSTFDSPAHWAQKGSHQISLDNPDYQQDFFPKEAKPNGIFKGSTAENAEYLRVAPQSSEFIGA

SMILES	GI50 [1] [nM]	IC50 [2] [nM]	IC50 [3] [nM]
C=CC(=O)Nc1cc(Nc2ncc(-c3ncco3)c(-c3cn(C4CC4)c4ccccc34)n2)c(OC)cc1N1C[C@@H]2CCN(C)[C@@H]2C1 (relative stereo) [Example 40, Cis N-(5-((4-(1-Cyclopropyl-1H-indol-3-yl)-5-(oxazol-2-yl)pyrimidin-2-yl)amino)-4-methoxy-2-(1-methylhexahydropyrrolo[3,4-b]pyrrol-5(1H)-yl)phenyl)acrylamide]	34.6	133	0.55
C=CC(=O)Nc1cc(Nc2ncc(C(=O)OC(C)C)c(-c3cn(C)c4ccccc34)n2)c(OC)cc1N1C[C@H]2CN(C)C[C@H]2C1 [Example 24, Isopropyl 2-((5-acrylamido-2-methoxy-4-(5-methylhexahydropyrrolo[3,4-c]pyrrol-2(1H)-yl)phenyl)amino)-4-(1-methyl-1H-indol-3-yl)pyrimidine-5-carboxylate]	15	124	
C=CC(=O)Nc1cc(Nc2ncc(C#N)c(-c3cn(C4CC4)c4ccccc34)n2)c(OC)cc1N1C[C@H]2CN(C)C[C@H]2C1 [Example 35, N-(5-((5-Cyano-4-(1-cyclopropyl-1H-indol-3-yl)pyrimidin-2-yl)amino)-4-methoxy-2-((3aR,6aS)-5-methylhexahydropyrrolo[3,4-c]pyrrol-2(1H)-yl)phenyl)acrylamide]	24.8	162	0.43
C=CC(=O)Nc1cc(Nc2ncc(-c3ncco3)c(-c3cn(C4CC4)c4ccccc34)n2)c(OC)cc1N1C[C@H]2CN(C)C[C@H]2C1 [Example 36, N-(5-((4-(1-Cyclopropyl-1H-indol-3-yl)-5-(oxazol-2-yl)pyrimidin-2-yl)amino)-4-methoxy-2-((3aR,6aS)-5-methylhexahydropyrrolo[3,4-c]pyrrol-2(1H)-yl)phenyl)acrylamide]	27.1	439	
C=CC(=O)Nc1cc(Nc2ncc(-c3ncco3)c(-c3cn(C4CC4)c4ccccc34)n2)c(OC)cc1N(C)CC1CCCN1C (stereo not shown) [Example 38, N-(5-((4-(1-Cyclopropyl-1H-indol-3-yl)-5-(oxazol-2-yl)pyrimidin-2-yl)amino)-4-methoxy-2-(methyl((1-methylpyrrolidin-2-yl)methyl)amino)phenyl)acrylamide]	34.6	146	0.45
C=CC(=O)Nc1cc(Nc2ncc(-c3ncco3)c(-c3cn(C4CC4)c4ccccc34)n2)c(OC)cc1N1CC(N(C)C)C1 [Example 52, N-(5-((4-(1-Cyclopropyl-1H-indol-3-yl)-5-(oxazol-2-yl)pyrimidin-2-yl)amino)-2-(3-(dimethylamino)azetidin-1-yl)-4-methoxyphenyl)acrylamide]	34.9	306	0.79
C=CC(=O)Nc1cc(Nc2ncc(-c3ncco3)c(-c3cn(C4CC4)c4ccccc34)n2)c(OC)cc1N1CC[C@H](N(C)C)C1 [Example 56, (S)—N-(5-((4-(1-Cyclopropyl-1H-indol-3-yl)-5-(oxazol-2-yl)pyrimidin-2-yl)amino)-2-(3-(dimethylamino)pyrrolidin-1-yl)-4-methoxyphenyl)acrylamide]	45.3	144	
C=CC(=O)Nc1cc(Nc2ncc(C#N)c(-c3cn(C4CC4)c4ccccc34)n2)c(OC)cc1N1C[C@H]2CCN(C)[C@H]2C1 [Example 109, N-(5-((5-Cyano-4-(1-cyclopropyl-1H-indol-3-yl)pyrimidin-2-yl)amino)-4-methoxy-2-((3aR,6aR)-1-methylhexahydropyrrolo[3,4-b]pyrrol-5(1H)-yl)phenyl)acrylamide]	49.1	168	0.78

More lines, in order of falling GI50 [1], values ahead:

GI50 [1] [nM]	IC50 [2] [nM]	IC50 [3] [nM]	SMILES
54.9	238		C=CC(=O)Nc1cc(Nc2ncc(-c3ccn(C)n3)c(-c3cn(C4CC4)c4ccccc34)n2)c(OC)cc1N1C[C@H]2CN(C)C[C@H]2C1 [Example 71, N-(5-((4-(1-Cyclopropyl-1H-indol-3-yl)-5-(1-methyl-1H-pyrazol-3-yl)pyrimidin-2-yl)amino)-4-methoxy-2-((3aR,6aS)-5-methylhexahydropyrrolo[3,4-c]pyrrol-2(1H)-yl)phenyl)acrylamide]
53.4	210	1	C=CC(=O)Nc1cc(Nc2ncc(-c3nccs3)c(-c3cn(C4CC4)c4ccccc34)n2)c(OC)cc1N1C[C@H]2CN(C)C[C@H]2C1 [Example 45, N-(5-((4-(1-Cyclopropyl-1H-indol-3-yl)-5-(thiazol-2-yl)pyrimidin-2-yl)amino)-4-methoxy-2-((3aR,6aS)-5-methylhexahydropyrrolo[3,4-c]pyrrol-2(1H)-yl)phenyl)acrylamide]
48.2	258	0.5	C=CC(=O)Nc1cc(Nc2ncc(C#N)c(-c3cn(C4CC4)c4ccccc34)n2)c(OC)cc1N1CC[C@@H](N(C)C)C1 [Example 78, (R)—N-(5-((5-Cyano-4-(1-cyclopropyl-1H-indol-3-yl)pyrimidin-2-yl)amino)-2-(3-(dimethylamino)pyrrolidin-1-yl)-4-methoxyphenyl)acrylamide]
33.1	51.7		C=CC(=O)Nc1cc(Nc2ncc(-c3ccccc3)c(-c3cn(C4CC4)c4ccccc34)n2)c(OC)cc1N1C[C@H]2CN(C)C[C@H]2C1 [Example 47, N-(5-((4-(1-Cyclopropyl-1H-indol-3-yl)-5-phenylpyrimidin-2-yl)amino)-4-methoxy-2-((3aR,6aS)-5-methylhexahydropyrrolo[3,4-c]pyrrol-2(1H)-yl)phenyl)acrylamide]
28.1	113	0.82	C=CC(=O)Nc1cc(Nc2ncc(-c3ncco3)c(-c3cn(C4CC4)c4ccccc34)n2)c(OC)cc1N1CC[C@@H](N(C)C)C1 [Example 57, (R)—N-(5-((4-(1-Cyclopropyl-1H-indol-3-yl)-5-(oxazol-2-yl)pyrimidin-2-yl)amino)-2-(3-(dimethylamino)pyrrolidin-1-yl)-4-methoxyphenyl)acrylamide]
21.7	182	0.5	C=CC(=O)Nc1cc(Nc2ncc(-c3ncco3)c(-c3cn(C4CC4)c4ccccc34)n2)c(OC)cc1N1CC(N2CCCC2)C1 [Example 53, N-(5-((4-(1-Cyclopropyl-1H-indol-3-yl)-5-(oxazol-2-yl)pyrimidin-2-yl)amino)-4-methoxy-2-(3-(pyrrolidin-1-yl)azetidin-1-yl)phenyl)acrylamide]
21.2	34.1	0.18	C=CC(=O)Nc1cc(Nc2ncc(C#N)c(-c3cn(C4COC4)c4ccccc34)n2)c(OC)cc1N(C)CCN(C)C [Example 111, N-(5-((5-cyano-4-(1-(oxetan-3-yl)-1H-indol-3-yl)pyrimidin-2-yl)amino)-2-((2-(dimethylamino)ethyl)(methyl)amino)-4-methoxyphenyl)acrylamide]
17.4	28.9	0.39	C=CC(=O)Nc1cc(Nc2ncc(-c3cccnc3)c(-c3cn(C4CC4)c4ccccc34)n2)c(OC)cc1N1C[C@H]2CN(C)C[C@H]2C1 [Example 64, N-(5-((4-(1-Cyclopropyl-1H-indol-3-yl)-5-(pyridin-3-yl)pyrimidin-2-yl)amino)-4-methoxy-2-((3aR,6aS)-5-methylhexahydropyrrolo[3,4-c]pyrrol-2(1H)-yl)phenyl)acrylamide]

From patent US20220340547A1, “INDOLE DERIVATIVE-CONTAINING INHIBITOR, PREPARATION METHOD THEREFOR AND APPLICATION THEREOF” (Shanghi Hansoh Biosoh Biomedical Co., Ltd., priority 2019, published 2022)
